In patent US12479840B2, “HMG-CoA reductase degradation inducing compound” (Uppthera, priority 2020, dated 2025):

biological target: T1, HMG-CoA reductase (Homo sapiens, UniProt P04035); test: HMG-CoA reductase (HMGCR) degradation in HepG2 cells by western blotting; type: cell-based; conditions: treated for 18 hours, ratio of HMG-CoA reductase to GAPDH, read-out: DC50
T1 construct: endogenous in cells; host or cells: HepG2 (Korea Cell Line Bank)
T1 sequence (P04035 1-888): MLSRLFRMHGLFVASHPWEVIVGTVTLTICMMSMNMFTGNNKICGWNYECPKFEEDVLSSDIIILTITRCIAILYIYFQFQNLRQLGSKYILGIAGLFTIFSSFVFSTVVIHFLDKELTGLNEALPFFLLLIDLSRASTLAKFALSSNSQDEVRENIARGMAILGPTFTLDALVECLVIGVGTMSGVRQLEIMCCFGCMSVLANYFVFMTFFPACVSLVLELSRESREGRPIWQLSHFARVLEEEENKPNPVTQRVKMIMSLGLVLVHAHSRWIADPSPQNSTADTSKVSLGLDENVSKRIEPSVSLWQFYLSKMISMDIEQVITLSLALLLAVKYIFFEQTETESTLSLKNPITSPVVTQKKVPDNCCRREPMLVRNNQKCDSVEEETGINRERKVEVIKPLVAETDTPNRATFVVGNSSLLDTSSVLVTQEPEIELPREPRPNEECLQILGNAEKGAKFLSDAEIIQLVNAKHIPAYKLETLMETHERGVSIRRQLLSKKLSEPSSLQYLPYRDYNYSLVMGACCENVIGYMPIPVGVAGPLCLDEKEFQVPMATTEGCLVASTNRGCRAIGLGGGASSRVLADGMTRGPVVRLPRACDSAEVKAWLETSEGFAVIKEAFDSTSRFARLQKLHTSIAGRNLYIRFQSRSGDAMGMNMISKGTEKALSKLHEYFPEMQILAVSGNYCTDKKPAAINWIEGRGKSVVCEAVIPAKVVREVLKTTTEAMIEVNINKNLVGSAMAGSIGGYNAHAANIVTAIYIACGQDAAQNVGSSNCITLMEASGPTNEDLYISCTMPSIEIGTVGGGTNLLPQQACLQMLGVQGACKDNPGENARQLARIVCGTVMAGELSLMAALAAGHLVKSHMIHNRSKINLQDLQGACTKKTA
Outline: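 HepG2 cells (passage P105–P110) treated 18 hours with compounds in 10-point three-fold dilutions from 3 μM. RIPA lysates (15 μg protein, BCA-quantified) run on SDS-PAGE and immunoblotted for HMGCR (1:500) with GAPDH (1:20000) as loading control, primary antibodies 16 hours at 4° C.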

| Structure (SMILES) | DC50 [nM] |
| --- | --- |
| C[C@H]1C=C2C=C[C@H](C)[C@H](CC[C@@H]3C[C@@H](O[Si](C)(C)C(C)(C)C)CC(=O)O3)[C@H]2[C@@H](OC(=O)NCCc2ccc(CC(=O)Nc3cccc4c3C(=O)N(C3CCC(=O)NC3=O)C4=O)cc2)C1 (stereo partly drawn) [Compound 146, (1S,3R,7S,8S,8aR)-8-(2-((2R,4R)-4-((tert-butyldimethylsilyl)oxy)-6-oxotetrahydro-2H-pyran-2-yl)ethyl)-3,7-dimethyl-1,2,3,7,8,8a-hexahydronaphthalen-1-yl (4-(2-((2-(2,6-dioxopiperidin-3-yl)-1,3-dioxoisoindolin-4-yl)amino)-2-oxoethyl)phenethyl)carbamate] | < 50 |
| C[C@H]1C=C2C=C[C@H](C)[C@H](CC[C@@H]3C[C@@H](O)CC(=O)O3)[C@H]2[C@@H](OC(=O)NCCc2ccc(CC(=O)Nc3cccc4c3C(=O)N(C3CCC(=O)NC3=O)C4=O)cc2)C1 (stereo partly drawn) [Compound 147, (1S,3R,7S,8S,8aR)-8-(2-((2R,4R)-4-hydroxy-6-oxotetrahydro-2H-pyran-2-yl)ethyl)-3,7-dimethyl-1,2,3,7,8,8a-hexahydronaphthalen-1-yl (4-(2-((2-(2,6-dioxopiperidin-3-yl)-1,3-dioxoisoindolin-4-yl)amino)-2-oxoethyl)phenethyl)carbamate] | < 50 |
| C[C@H]1C=C2C=C[C@H](C)[C@H](CC[C@@H]3C[C@@H](O)CC(=O)O3)[C@H]2[C@@H](OC(=O)C(C)(C)CCC(=O)NCCOCCOCCNc2cccc3nnn(C4CCC(=O)NC4=O)c(=O)c23)C1 (stereo partly drawn) [Compound 152, (1S,3R,7S,8S,8aR)-8-(2-((2R,4R)-4-hydroxy-6-oxotetrahydro-2H-pyran-2-yl)ethyl)-3,7-dimethyl-1,2,3,7,8,8a-hexahydronaphthalen-1-yl 5-((2-(2-(2-((3-(2,6-dioxopiperidin-3-yl)-4-oxo-3,4-dihydrobenzo[d][1,2,3]triazin-5-yl)amino)ethoxy)ethoxy)ethyl)amino)-2,2-dimethyl-5-oxopentanoate] | < 50 |
| C[C@H]1C=C2C=C[C@H](C)[C@H](CC[C@@H]3CC=CC(=O)O3)[C@H]2[C@@H](OC(=O)NCCOCCOCCNc2cccc3c2C(=O)N(C2CCC(=O)NC2=O)C3=O)C1 (stereo partly drawn) [Compound 153, (1S,3R,7S,8S,8aR)-3,7-dimethyl-8-(2-((R)-6-oxo-3,6-dihydro-2H-pyran-2-yl)ethyl)-1,2,3,7,8,8a-hexahydronaphthalen-1-yl (2-(2-(2-((2-(2,6-dioxopiperidin-3-yl)-1,3-dioxoisoindolin-4-yl)amino)ethoxy)ethoxy)ethyl)carbamate] | < 50 |
| Cc1ncsc1-c1ccc(CNC(=O)[C@@H]2C[C@@H](O)CN2C(=O)[C@@H](NC(=O)CCCCCCCCCCNC(=O)O[C@H]2C[C@@H](C)C=C3C=C[C@H](C)[C@H](CC[C@@H](O)C[C@@H](O)CC(=O)O)[C@H]32)C(C)(C)C)cc1 [Compound 154, (3R,5R)-3,5-dihydroxy-7-((1S,2S,6R,8S,8aR)-8-(((11-(((S)-1-((2S,4R)-4-hydroxy-2-((4-(4-methylthiazol-5-yl)benzyl)carbamoyl)pyrrolidin-1-yl)-3,3-dimethyl-1-oxobutan-2-yl)amino)-11-oxoundecyl)carbamoyl)oxy)-2,6-dimethyl-1,2,6,7,8,8a-hexahydronaphthalen-1-yl)heptanoic acid] | > 500 |
| C[C@H]1C=C2C=C[C@H](C)[C@H](CC[C@@H]3C[C@@H](O[Si](C)(C)C(C)(C)C)CC(=O)O3)[C@H]2[C@@H](OC(=O)NCCOCCOCCNc2cccc3nnn(C4CCC(=O)NC4=O)c(=O)c23)C1 (stereo partly drawn) [Compound 155, (1S,3R,7S,8S,8aR)-8-(2-((2R,4R)-4-((tert-butyldimethylsilyl)oxy)-6-oxotetrahydro-2H-pyran-2-yl)ethyl)-3,7-dimethyl-1,2,3,7,8,8a-hexahydronaphthalen-1-yl (2-(2-(2-((3-(2,6-dioxopiperidin-3-yl)-4-oxo-3,4-dihydrobenzo[d][1,2,3]triazin-5-yl)amino)ethoxy)ethoxy)ethyl)carbamate] | < 50 |
| C[C@H]1C=C2C=C[C@H](C)[C@H](CC[C@@H]3C[C@@H](O)CC(=O)O3)[C@H]2[C@@H](OC(=O)NCCOCCOCCNc2cccc3nnn(C4CCC(=O)NC4=O)c(=O)c23)C1 (stereo partly drawn) [Compound 156, (1S,3R,7S,8S,8aR)-8-(2-((2R,4R)-4-hydroxy-6-oxotetrahydro-2H-pyran-2-yl)ethyl)-3,7-dimethyl-1,2,3,7,8,8a-hexahydronaphthalen-1-yl (2-(2-(2-((3-(2,6-dioxopiperidin-3-yl)-4-oxo-3,4-dihydrobenzo[d][1,2,3]triazin-5-yl)amino)ethoxy)ethoxy)ethyl)carbamate] | < 50 |
| C[C@H]1C=C2C=C[C@H](C)[C@H](CC[C@@H]3C[C@@H](O)CC(=O)O3)[C@H]2[C@@H](OC(=O)NCCCOCCOCCOCCCNc2cccc3c2C(=O)N(C2CCC(=O)NC2=O)C3=O)C1 (stereo partly drawn) [Compound 157, (1S,3R,7S,8S,8aR)-8-(2-((2R,4R)-4-hydroxy-6-oxotetrahydro-2H-pyran-2-yl)ethyl)-3,7-dimethyl-1,2,3,7,8,8a-hexahydronaphthalen-1-yl (3-(2-(2-(3-((2-(2,6-dioxopiperidin-3-yl)-1,3-dioxoisoindolin-4-yl)amino)propoxy)ethoxy)ethoxy)propyl)carbamate] | < 50 |
| Cc1ncsc1-c1ccc(CNC(=O)[C@@H]2C[C@@H](O)CN2C(=O)[C@@H](NC(=O)CCCCCCCNC(=O)O[C@H]2C[C@@H](C)C=C3C=C[C@H](C)[C@H](CC[C@@H]4C[C@@H](O)CC(=O)O4)[C@H]32)C(C)(C)C)cc1 [Compound 158, (1S,3R,7S,8S,8aR)-8-(2-((2R,4R)-4-hydroxy-6-oxotetrahydro-2H-pyran-2-yl)ethyl)-3,7-dimethyl-1,2,3,7,8,8a-hexahydronaphthalen-1-yl (8-(((S)-1-((2S,4R)-4-hydroxy-2-((4-(4-methylthiazol-5-yl)benzyl)carbamoyl)pyrrolidin-1-yl)-3,3-dimethyl-1-oxobutan-2-yl)amino)-8-oxooctyl)carbamate] | < 50 |
| Cc1ncsc1-c1ccc(CNC(=O)[C@@H]2C[C@@H](O)CN2C(=O)[C@@H](NC(=O)CCCCCCCCCCNC(=O)O[C@H]2C[C@@H](C)C=C3C=C[C@H](C)[C@H](CC[C@@H]4C[C@@H](O)CC(=O)O4)[C@H]32)C(C)(C)C)cc1 [Compound 160, (1S,3R,7S,8S,8aR)-8-(2-((2R,4R)-4-hydroxy-6-oxotetrahydro-21H-pyran-2-yl)ethyl)-3,7-dimethyl-1,2,3,7,8,8a-hexahydronaphthalen-1-yl (11-(((S)-1-((2S,4R)-4-hydroxy-2-((4-(4-methylthiazol-5-yl)benzyl)carbamoyl)pyrrolidin-1-yl)-3,3-dimethyl-1-oxobutan-2-yl)amino)-11-oxoundecyl)carbamate] | < 50 |
| Cc1ncsc1-c1ccc(CNC(=O)[C@@H]2C[C@@H](O)CN2C(=O)[C@@H](NC(=O)CCCc2cn(CCCCNC(=O)O[C@H]3C[C@@H](C)C=C4C=C[C@H](C)[C@H](CC[C@@H]5C[C@@H](O)CC(=O)O5)[C@H]43)nn2)C(C)(C)C)cc1 [Compound 161, (1S,3R,7S,8S,8aR)-8-(2-((2R,4R)-4-hydroxy-6-oxotetrahydro-2H-pyran-2-yl)ethyl)-3,7-dimethyl-1,2,3,7,8,8a-hexahydronaphthalen-1-yl (4-(4-(4-(((S)-1-((2S,4R)-4-hydroxy-2-((4-(4-methylthiazol-5-yl)benzyl)carbamoyl)pyrrolidin-1-yl)-3,3-dimethyl-1-oxobutan-2-yl)amino)-4-oxobutyl)-1H-1,2,3-triazol-1-yl)butyl)carbamate] | < 50 |
| Cc1ncsc1-c1ccc(CNC(=O)[C@@H]2C[C@@H](O)CN2C(=O)[C@@H](NC(=O)CCCN2CCC(CCCNC(=O)O[C@@H]3C[C@H](C)C=C4C=C[C@@H](C)[C@@H](CC[C@H]5C[C@H](O)CC(=O)O5)[C@@H]43)CC2)C(C)(C)C)cc1 [Compound 162, (1R,3S,7R,8R,8aS)-8-(2-((2S,4S)-4-hydroxy-6-oxotetrahydro-2H-pyran-2-yl)ethyl)-3,7-dimethyl-1,2,3,7,8,8a-hexahydronaphthalen-1-yl (3-(1-(4-(((S)-1-((2S,4R)-4-hydroxy-2-((4-(4-methylthiazol-5-yl)benzyl)carbamoyl)pyrrolidin-1-yl)-3,3-dimethyl-1-oxobutan-2-yl)amino)-4-oxobutyl)piperidin-4-yl)propyl)carbamate] | < 50 |
